Legend:
Valsa ceratosperma [1] = test: Growth of germs on potato dextrose-agar medium containing the compound (Ex. 1); type: cell-based; design: key: +++: extremely much growth; ++: much growth; +: a little growth; -: no growth; settings: two weeks, 25° C.
Procedure: (§1) Ethyl 2-(2-hydroxyethylamino)-3-benzoylpropionate hydrochloride was added to potato dextrose-agar culture medium in the concentration indicated in Table 1 and the suspensions of various kinds of germs were dropped on the culture medium. After incubation of the germs for two weeks in thermostat (25° C.), the growing conditions were observed.
(§2) In Table 1, +++, ++, + and - represent "extremely much growth", "much growth", "a little growth" and "no growth" respectively.

Verticillium alboatrum = test: Growth of germs on potato dextrose-agar medium containing the compound (Ex. 2); type: cell-based; design: key: +++: extremely much growth; ++: much growth; +: a little growth; -: no growth; settings: two weeks, 25° C.
Procedure: as §1, §2

Cladosporium cucumerium = test: Growth of germs on potato dextrose-agar medium containing the compound (Ex. 4); type: cell-based; design: key: +++: extremely much growth; ++: much growth; +: a little growth; -: no growth; settings: two weeks, 25° C.
Procedure: as §1, §2

Cladosporium fulvum = test: Growth of germs on potato dextrose-agar medium containing the compound (Ex. 5); type: cell-based; design: key: +++: extremely much growth; ++: much growth; +: a little growth; -: no growth; settings: two weeks, 25° C.
Procedure: as §1, §2

Alternaria solani = test: Growth of germs on potato dextrose-agar medium containing the compound (Ex. 6); type: cell-based; design: key: +++: extremely much growth; ++: much growth; +: a little growth; -: no growth; settings: two weeks, 25° C.
Procedure: as §1, §2

[2] = tested on: Fusarium oxysporum f. lycopersici; test: Growth of germs on potato dextrose-agar medium containing the compound (Ex. 8); type: cell-based; design: key: +++: extremely much growth; ++: much growth; +: a little growth; -: no growth; settings: two weeks, 25° C.
Procedure: as §1, §2

Mycosphaerella melonis = test: Growth of germs on potato dextrose-agar medium containing the compound (Ex. 13); type: cell-based; design: key: +++: extremely much growth; ++: much growth; +: a little growth; -: no growth; settings: two weeks, 25° C.
Procedure: as §1, §2

Pyrenochaeta sp. = test: Growth of germs on potato dextrose-agar medium containing the compound (Ex. 14); type: cell-based; design: key: +++: extremely much growth; ++: much growth; +: a little growth; -: no growth; settings: two weeks, 25° C.
Procedure: as §1, §2

Cercospora kikuchii = test: Growth of germs on potato dextrose-agar medium containing the compound (Ex. 15); type: cell-based; design: key: +++: extremely much growth; ++: much growth; +: a little growth; -: no growth; settings: two weeks, 25° C.
Procedure: as §1, §2

Valsa ceratosperma [3] = test: Length of disease spots on apple branches treated on the third day after inoculation (Ex. 17); type: in vivo; settings: 1000 ppm on third day after inoculation
Procedure: Branches of Delicious apple (branch diameter: about 1 cm. thick) grown for 1-2 years were cut to 10 cm. length. The cut branches were dried in a low temperature chamber (3° C.) until the water content of the cut branches became 50%. The dried cut branches were immersed in an aqueous solution of ethyl 2-(2-hydroxyethylamino)-3-benzoylpropionate hydrochloride (500 ppm, 1000 ppm and 2500 ppm) for one minute and then dried.
Each cut branch was end bored by a white heated 8 mm diameter cork borer. Valsa ceratosperma, previously cultured for four days on a potato dextrose-agar culture medium, was introduced into the branch by inoculating the branch with the Valsa ceratosperma containing culture by means of the sterilized cork borer. The branches prepared in this way were placed on wet filter paper spread in a polyethylene tray. The tray was inserted into a polyethylene bag which was sealed and then the bag was put into a thermostat (25° C.) for various controlled times.
After removal from the thermostat, the length of disease spots on each branch was measured.
The same experiment as in Example 16 was carried out except that the apple branches were treated with the germicides (1000 ppm) on the third day after the branches were inoculated with the germ. The lengths of disease spots on the third day […], fifth day and seventh day were 5.1 mm, 5.2 mm and 5.2 mm respectively.

[4] = tested on: Colletotrichum lagenarium; test: Prevention effect for anthracnose on cucumber (Ex. 18); type: in vivo; settings: for Germicidal damage to seedlings: cucumber seedlings; for Number of disease spots per leaf / Percentage of leaves attacked with the disease / Prevention value per leaf (Perfect prevention = 100): sixth day after spraying
Text: The prevention effect for anthracnose on cucumber was investigated in the following manner.
An aqueous solution of ethyl 2-(2-hydroxyethylamino)-3-benzoylpropionate hydrochloride (2500 ppm and 5000 ppm) was sprayed on cucumber seedlings (bifoliate age) of Tokiwa Hikari No. 3 (p type) variety which were planted in sections of two rows of three.
After air-drying the seedlings, a spore suspention of Colletotrichum lagenarium was inoculated on the test seedlings by means of a glass sprayer. The inoculated seedlings were kept at 20°-22° C. for four days in the inoculation box, and then allowed to stand in a glass chamber.
The number of disease spots of anthracnose that appeared on the cucumber leaves was measured on the sixth day after spraying the germicidal aqueous solution. The number of spots can be used to calculate a prevention value. Using the number of spots that appeared per control leaf as a reference, the relative number per hundred of spots prevented by the experimental germicide is the prevention value. Thus a perfectly preventive germicide has a prevention value of 100 and the control has a prevention value of 0.

CCOC(=O)C(CC(=O)c1ccccc1)NCCO.Cl (centres unmarked) [Ethyl 2-(2-hydroxyethylamino)-3-benzoylpropionate hydrochloride]
5.2 mm: lengths of disease spots (Valsa ceratosperma [3]; fifth day) | lengths of disease spots (Valsa ceratosperma [3]; seventh day)
88.0: Prevention value per leaf (Perfect prevention = 100) ([4]; 2500 ppm)
+++: growing conditions (growth of germ) (Verticillium alboatrum; 10 ppm) | growing conditions (growth of germ) (Cladosporium cucumerium; 10 ppm) | growing conditions (growth of germ) (Cladosporium cucumerium; 20 ppm) | growing conditions (growth of germ) ([2]; 10 ppm) | growing conditions (growth of germ) (Mycosphaerella melonis; 10 ppm)
5.1 mm: lengths of disease spots (Valsa ceratosperma [3]; third day)
+: growing conditions (growth of germ) (Cercospora kikuchii; 10 ppm)
87.6: Prevention value per leaf (Perfect prevention = 100) ([4]; 5000 ppm)
2.92: Number of disease spots per leaf ([4]; 5000 ppm)
none: Germicidal damage to seedlings ([4]; 2500 ppm) | Germicidal damage to seedlings ([4]; 5000 ppm)
83.3%: Percentage of leaves attacked with the disease ([4]; 2500 ppm)
-: growing conditions (growth of germ) (Valsa ceratosperma [1]; 10 ppm) | growing conditions (growth of germ) (Valsa ceratosperma [1]; 20 ppm) | growing conditions (growth of germ) (Valsa ceratosperma [1]; 50 ppm) | growing conditions (growth of germ) (Valsa ceratosperma [1]; 100 ppm) | growing conditions (growth of germ) (Valsa ceratosperma [1]; 200 ppm) | growing conditions (growth of germ) (Verticillium alboatrum; 50 ppm) | growing conditions (growth of germ) (Verticillium alboatrum; 100 ppm) | growing conditions (growth of germ) (Verticillium alboatrum; 200 ppm) | growing conditions (growth of germ) (Cladosporium cucumerium; 50 ppm) | growing conditions (growth of germ) (Cladosporium cucumerium; 100 ppm) | growing conditions (growth of germ) (Cladosporium cucumerium; 200 ppm) | growing conditions (growth of germ) (Cladosporium fulvum; 20 ppm) | growing conditions (growth of germ) (Cladosporium fulvum; 50 ppm) | growing conditions (growth of germ) (Cladosporium fulvum; 100 ppm) | growing conditions (growth of germ) (Cladosporium fulvum; 200 ppm) | growing conditions (growth of germ) (Alternaria solani; 20 ppm) | growing conditions (growth of germ) (Alternaria solani; 50 ppm) | growing conditions (growth of germ) (Alternaria solani; 100 ppm) | growing conditions (growth of germ) (Alternaria solani; 200 ppm) | growing conditions (growth of germ) ([2]; 50 ppm) | growing conditions (growth of germ) ([2]; 100 ppm) | growing conditions (growth of germ) ([2]; 200 ppm) | growing conditions (growth of germ) (Mycosphaerella melonis; 20 ppm) | growing conditions (growth of germ) (Mycosphaerella melonis; 50 ppm) | growing conditions (growth of germ) (Mycosphaerella melonis; 100 ppm) | growing conditions (growth of germ) (Mycosphaerella melonis; 200 ppm) | growing conditions (growth of germ) (Pyrenochaeta sp.; 50 ppm) | growing conditions (growth of germ) (Pyrenochaeta sp.; 100 ppm) | growing conditions (growth of germ) (Pyrenochaeta sp.; 200 ppm) | growing conditions (growth of germ) (Cercospora kikuchii; 20 ppm) | growing conditions (growth of germ) (Cercospora kikuchii; 50 ppm) | growing conditions (growth of germ) (Cercospora kikuchii; 100 ppm) | growing conditions (growth of germ) (Cercospora kikuchii; 200 ppm)
2.83: Number of disease spots per leaf ([4]; 2500 ppm)
91.7%: Percentage of leaves attacked with the disease ([4]; 5000 ppm)
++: growing conditions (growth of germ) (Verticillium alboatrum; 20 ppm) | growing conditions (growth of germ) (Cladosporium fulvum; 10 ppm) | growing conditions (growth of germ) (Alternaria solani; 10 ppm) | growing conditions (growth of germ) ([2]; 20 ppm) | growing conditions (growth of germ) (Pyrenochaeta sp.; 10 ppm) | growing conditions (growth of germ) (Pyrenochaeta sp.; 20 ppm)

Reference: patent publication US4241083A, “Germicidal composition for agriculture and horticulture” (priority 1978, dated 1980)
